Assays:
Experiment in all cases: fluorogenic peptide-amc hydrolysis, dose-response over […] h
Assay type in all cases: biochemical
[1] = target: T1, Tv20S β2 (T. vaginalis 20S proteasome, β2 site) (Trichomonas vaginalis, UniProt A2F2T6)
T1 sequence (A2F2T6 32-275): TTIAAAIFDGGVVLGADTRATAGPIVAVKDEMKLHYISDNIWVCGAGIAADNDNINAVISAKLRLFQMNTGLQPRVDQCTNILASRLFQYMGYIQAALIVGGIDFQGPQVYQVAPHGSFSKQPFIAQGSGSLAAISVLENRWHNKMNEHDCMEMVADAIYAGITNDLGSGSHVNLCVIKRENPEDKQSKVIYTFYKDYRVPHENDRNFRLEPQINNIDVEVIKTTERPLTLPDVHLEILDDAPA

[2] = target: T2, Tv20S β5 (T. vaginalis 20S proteasome, β5 site) (Trichomonas vaginalis, UniProt A2DD57)
T2 sequence (A2DD57 54-256): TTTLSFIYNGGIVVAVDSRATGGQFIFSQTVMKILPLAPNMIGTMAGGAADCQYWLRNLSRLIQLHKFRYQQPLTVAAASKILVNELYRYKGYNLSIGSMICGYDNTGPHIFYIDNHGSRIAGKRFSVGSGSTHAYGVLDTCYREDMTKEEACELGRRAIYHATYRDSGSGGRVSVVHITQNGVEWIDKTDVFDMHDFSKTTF

[3] = target: T3, Tv20S β1 (T. vaginalis 20S proteasome, β1 site) (Trichomonas vaginalis, UniProt A2E7Z2)
T3 sequence (A2E7Z2 13-216): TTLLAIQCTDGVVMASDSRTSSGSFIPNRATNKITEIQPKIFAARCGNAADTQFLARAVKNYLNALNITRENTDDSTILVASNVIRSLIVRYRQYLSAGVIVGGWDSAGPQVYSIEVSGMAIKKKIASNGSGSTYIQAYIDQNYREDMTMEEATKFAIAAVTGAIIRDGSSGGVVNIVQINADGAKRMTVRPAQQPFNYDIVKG

Structure (SMILES)	IC50 [1]	IC50 [2]	IC50 [3]
CC(C)C[C@H](NC(=O)[C@H](CCc1ccccc1)NC(=O)CN1CCOCC1)C(=O)N[C@@H](Cc1ccccc1)C(=O)N[C@@H](CC(C)C)C(=O)[C@@]1(C)CO1 [carfilzomib]	372 ± 92.1 nM	78.4 ± 17.3 nM	
CC(C)C[C@H](NC(=O)CNC(=O)c1cc(Cl)ccc1Cl)B(O)O [ixazomib]		34.1 ± 5.4 nM	270 ± 97.1 nM

From publication doi:10.1101/2023.04.05.535794v1 (biorxiv, 2023)
